≈ marks a conversion by molar mass, not a printed value. Where two headings read alike, the source gives them in different places.
Experiments:
GSK3α = GSK3α (Homo sapiens (Human), UniProt P49840); assay: GSK3 alpha biochemical assay (TR-FRET); settings: GSK3α TR-FRET BIOCHEMICAL (TR-FRET) GMean IC50, 4 μM ATP (Km), 100 min at room temperature
Experimental: (§6) 1 nM enzyme, 200 nM biotinylated peptide
(§7) 4 μM ATP (GSK3 alpha) or 2 μM ATP (GSK3 beta)
(§8) The reaction volume is 10 μL, and the final percent DMSO is 1%. The total volume of DMSO is therefore 100 nL. It is critical that the percentage of DMSO be controlled and consistent across the plate. […] The High control is with all assay components but no inhibitor, the low control is with all assay components but no enzyme.
(§9) Make 2× detection reagents in Invitrogen TR-FRET detection buffer for final 20 nM Strepavidin-d2, 1 nM Tb^2+-pSer641 antibody (using 20 μl as final volume). 2× detection=40 nM Strepavidin-d2, 2 nM Tb^2+-pSer641 antibody.
(§10) XLFit is used for results which are archived into a database. The data is normalized as a percentage of uninhibited control minus max inhibited controls.

MDR1 = assay: Additional MDCK permeability (MDR1-MDCK) assay (Example 6); assay type: in vitro ADME; settings: dog
Excerpt: The MDR1/MDCK assay is run at Absorption Systems. This assay is used to determine the blood-brain barrier (BBB) penetration potential of a test compound using MDR1-MDCK cell monolayers.
Assay System • Confluent monolayers of MDR1-MDCK cells, 7 to 11 days old. Assay Conditions • Receiver well with 1% BSA in modified Hanks buffer (HBSSg) • Apical and basolateral side at pH 7.4 • Dose two monolayers in each direction (N=2) • Dose apical side for (A to B) assessment • Dose basolateral side for (B to A) assessment • Sample both apical and basolateral sides at 120 minutes • Determine the concentrations of test compound using a generic LC-MS/MS method with a minimum 4 point calibration curve. Assay QC • The quality of the cell monolayer batch is verified using control compounds before monolayers are released for use • The quality of each monolayer used in the assay is verified by a TEER measurement and by calculating the Papp for a control compound.

GSK3β = GSK3β (Homo sapiens (Human), UniProt P49841); assay: GSK3 beta biochemical assay (TR-FRET); settings: GSK3β TR-FRET BIOCHEMICAL (TR-FRET) GMean IC50, 2 μM ATP (Km), 100 min at room temperature
Experimental: as §6, §7, §8, §9, §10

physchem = settings: 23 °C, aqueous buffer, thermodynamic from solid
Experimental: (§11) Solubility of compound was tested in triplicate by diluting a 10 mM DMSO solution with PBS. Maximum concentration of compound in solution was 100 μM.
(§12) Solubility of compound was tested in triplicate by drying down a 10 mM DMSO solution and then attempting to reconstitute in 100% PBS. Maximum concentration of compound in solution was 500 μM.
(§13) Compound requirements (1% DMSO in PBS): 30 μL of a 10 mM DMSO solution. Compound requirements (PBS-only): 60 μL of a 10 mM DMSO solution. Equilibration time: 18 hours at room temperature.

[1] = Liver microsomal stability, mouse; assay type: in vitro ADME, mouse (CD-1)
Experimental: (§1) Stability of compound in liver microsomes was tested in duplicate by incubating compound at 1 μM for 60 minutes at 37° C. Compound level at 60 minutes was compared to level at 0 minutes, and percent remaining was calculated. Order by selecting Microsomal Stability in Prometheus, checking boxes for desired species.
(§2) Available species: human, mouse (CD-1), and rat (Sprague-Dawley). Compound requirements: 5 μL of a 10 mM DMSO solution. Incubation time: 60 minutes at 37° C. Test Concentration: 1 μM.
(§3) Microsomes with NADPH without compound-matrix interference. Microsomes plus compound without NADPH-non-enzymatic instability.

[2] = Liver microsomal stability, human; assay type: in vitro ADME
Experimental: as §1, §2, §3

Plasma stability, mouse = assay type: in vitro ADME, mouse (CD-1)
Experimental: (§4) Stability of compound in plasma was tested in duplicate by incubating compound at 5 μM for 5 hours at 37° C. Compound level at 5 hours was compared to level at 0 hours, and percent remaining was calculated. Binding to plasma proteins was tested in duplicate by incubating compound in plasma at 5 μM for 5 hours at 37° C. in the Rapid Equilibrium Dialysis (RED) Device. Compound level in plasma compartment was compared to compound level in buffer compartment to calculate percent bound. Order by selecting Plasma Stability and Plasma Protein Binding in Prometheus, checking boxes for desired species.
(§5) Available species: human, mouse (CD-1), and rat (Sprague-Dawley). Compound requirements: 15 μL of a 10 mM DMSO solution. Incubation time: 5 hours at 37° C. Test Concentration: 5 μM.

[3] = Plasma protein binding (RED), mouse; assay type: in vitro ADME, mouse (CD-1); settings: CD-1, 5 hours at 37° C., read-out: Plasma Protein Binding (Mouse, % bound) (converted)
GSK3 = settings: cited from earlier work
[4] = Plasma protein binding (RED), human; assay type: in vitro ADME; settings: 5 hours at 37° C., read-out: Plasma Protein Binding (Human, % bound) (converted)
Experimental: as §4, §5

Plasma stability, human = assay type: in vitro ADME
Experimental: as §4, §5

Solubility in PBS = settings: 23 °C, aqueous buffer, thermodynamic from solid
Experimental: as §11, §12, §13

[5] = system: Δ7 SMA KO mouse model of SMA; settings: transgenic Δ7 SMA KO mouse model; cited from earlier work
[6] = system: oxidative stress-induced neurodegeneration; settings: cited from earlier work
[7] = system: SMA patient-derived fibroblast cells; settings: Western blot; cited from earlier work
[8] = mouse plasma, 5 μM, 5 hours at 37° C.
[9] = human plasma, 5 μM, 5 hours at 37° C.

Sequence of GSK3β (P49841 whole entry): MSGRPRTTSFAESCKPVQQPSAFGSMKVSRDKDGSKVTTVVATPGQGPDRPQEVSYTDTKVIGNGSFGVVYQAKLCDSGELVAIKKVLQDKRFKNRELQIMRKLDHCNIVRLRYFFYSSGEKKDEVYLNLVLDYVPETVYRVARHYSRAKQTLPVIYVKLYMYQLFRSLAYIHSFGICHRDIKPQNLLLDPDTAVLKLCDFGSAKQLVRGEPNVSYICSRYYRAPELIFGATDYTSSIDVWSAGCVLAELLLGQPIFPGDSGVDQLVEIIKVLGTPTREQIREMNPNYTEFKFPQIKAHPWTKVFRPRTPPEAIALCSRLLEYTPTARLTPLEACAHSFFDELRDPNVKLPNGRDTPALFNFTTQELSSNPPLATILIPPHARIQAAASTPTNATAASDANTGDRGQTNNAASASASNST
Sequence of GSK3α (P49840 whole entry): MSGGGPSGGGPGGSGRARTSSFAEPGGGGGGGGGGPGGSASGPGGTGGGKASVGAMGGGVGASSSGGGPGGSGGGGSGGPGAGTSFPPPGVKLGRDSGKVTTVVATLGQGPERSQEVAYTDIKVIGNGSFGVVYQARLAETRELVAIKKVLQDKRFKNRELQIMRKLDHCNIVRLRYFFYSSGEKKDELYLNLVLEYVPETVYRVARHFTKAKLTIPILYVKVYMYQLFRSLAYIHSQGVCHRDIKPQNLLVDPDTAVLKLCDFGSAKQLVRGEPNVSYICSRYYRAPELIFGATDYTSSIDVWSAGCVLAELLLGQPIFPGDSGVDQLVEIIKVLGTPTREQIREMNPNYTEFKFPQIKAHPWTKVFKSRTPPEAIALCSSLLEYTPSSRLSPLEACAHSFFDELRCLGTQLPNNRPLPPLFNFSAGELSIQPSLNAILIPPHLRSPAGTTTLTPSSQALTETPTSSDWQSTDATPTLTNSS

Structure (SMILES)	Mouse Liver Microsomal Stability, % remaining ([1]; 1 μM, 60 minutes at 37° C.) [%]	Human Liver Microsomal Stability, % remaining ([2]; 1 μM, 60 minutes at 37° C.) [%]	Plasma Stability (Mouse, % remaining) (Plasma stability, mouse; [8]) [%]	fraction unbound at 5 h, 5 μM [3]	fraction unbound at 5 h, 5 μM [4]	solubility thermodynamic at 18 h (Solubility in PBS) [µM]	Plasma Stability (Human, % remaining) (Plasma stability, human; [9]) [%]	other results
CCC1(c2ccccc2)C2=C(CC(C)(C)CC2=O)Nc2ncsc21 (single isomer, unassigned) [Compound 1-E2, 9-Ethyl-6,6-dimethyl-9-phenyl-5,6,7,9-tetrahydrothiazolo[4,5-b]quinolin-8(4H)-one]								IC50 (GSK3α): 0.037 µM; Papp A→B at 120 min, 5 μM (MDR1): 7.67 ×10⁻⁶ cm/s; Papp B→A at 120 min, 5 μM (MDR1): 24.4 ×10⁻⁶ cm/s; efflux ratio at 120 min, 5 μM (MDR1; read-out: MDCK PERMEABILITY (MDR1-MDCK) Mean P. Ratio(B-A/A-B)): 3.2; IC50 (GSK3β): 0.19 µM
CC[C@@]1(c2ccccc2)C2=C(CC(C)(C)CC2=O)Nc2n[nH]cc21 [drawing 179]	93	95	95.3	0.212				solubility thermodynamic at 18 h (physchem): 480 µM (≈ 154 µg/mL)
[Li+] [Li^+, Lithium]								IC50 (GSK3): 2000 µM
Cc1c[nH]c(-c2cnc(NCCNc3ccc(C#N)cn3)nc2-c2ccc(Cl)cc2Cl)n1 [drawing 180]				0.043	0.039			solubility thermodynamic at 18 h (physchem): 116 µM (≈ 54 µg/mL); Mouse Liver Microsomal Stability, % remaining [1]: 4.0%; Plasma Stability (Human, % remaining) (Plasma stability, human): 100%; Human Liver Microsomal Stability, % remaining [2]: 3.0%; Plasma Stability (Mouse, % remaining) (Plasma stability, mouse): 97.0%
CC[C@@]1(c2ccccc2)C2=C(CC(C)(C)CC2=O)Nc2ncsc21 [drawing 173]	5.6	6.6	100	0.074	0.049	17 (≈ 5.75 µg/mL)	100	
Cn1cc(C2=C(c3coc4ccccc34)C(=O)NC2=O)c2cc(Br)ccc21 [BIP-135]								median survival of the mice [5]: prolong the median survival of the mice; neuroprotection [6]: neuroprotective; SMN protein level [7]: elevate the SMN protein level
CC[C@@]1(c2cccc(F)c2)C2=C(CC(C)(C)CC2=O)Nc2ncsc21 [drawing 174]	3.9	2.4	96.0	0.043	0.029	100 (≈ 35.6 µg/mL)	99.2	
CC[C@@]1(c2cccc(Cl)c2)C2=C(CC(C)(C)CC2=O)Nc2ncsc21	11.1	0.0	98.1	0.023	0.018	37 (≈ 13.8 µg/mL)	98.7	

From US11203601B2, “Tricyclic compounds as glycogen synthase kinase 3 (GSK3) inhibitors and uses thereof” (The Broad Institute, Inc., priority 2017, dated 2021)
